The experiment concerns mutant Huntington (HTT) protein. Kind of experiment: HTT Mutant HTRF iPSC assay (mHTT protein lowering). It is filed as cell-based. The conditions noted are these: human iPSC derived from a HTT patient with a poly-Q49 mutation. A general note: Time-resolved FRET reads energy transfer from a long-lived donor to a nearby acceptor.

One may read the IC50 as the point on the concentration scale where inhibition reaches its midpoint. Read a low IC50 as greater potency. Consider `Cc1cn2nc(-c3cc(F)c4nc(NC(=O)C5CCC(N(C)C)C5)cn4c3)cc(C)c2n1` (racemic) [Compound 128, rac-3-(dimethylamino)-N-(6-(2,8-dimethylimidazo[1,2-b]pyridazin-6-yl)-8-fluoroimidazo[1,2-a]pyridin-2-yl)cyclopentane-1-carboxamide], for which the half-inhibitory concentration (IC50) is below 0.1 µM.
Regarding `Cc1cn2nc(-c3cc(F)c4nc(C5CCN(CC(C)(C)C)CC5)nn4c3)cc(C)c2n1` [Compound 436, 6-(2,8-dimethylimidazo[1,2-b]pyridazin-6-yl)-8-fluoro-2-(1-neopentylpiperidin-4-yl)-[1,2,4]triazolo[1,5-a]pyridine], the IC50 lay in the range of 0.1 to 1 µM.
For `Cc1cn2nc(-c3cc(F)c4nc([C@H]5[C@@H]6CN(C)C[C@@H]65)cn4c3)cc(C(F)(F)F)c2n1` [Compound 230, 6-(8-fluoro-2-((1R,5S,6r)-3-methyl-3-azabicyclo[3.1.0]hexan-6-yl)imidazo[1,2-a]pyridin-6-yl)-2-methyl-8-(trifluoromethyl)imidazo [1,2-b]pyridazine] the value was below 0.1 µM; for `CCOc1nccc2oc(-c3cc(F)c4nc(C5CCNCC5)cn4c3)cc12` [Compound 41, 4-ethoxy-2-(8-fluoro-2-(piperidin-4-yl)imidazo[1,2-a]pyridin-6-yl)furo[3,2-c]pyridine], 1 to 9 µM.
The compound `Cc1nc2c(C)cc(-c3cc(F)c4nc(C5CCNCC5)cn4c3)cn2n1` [Compound 123, 6-(8-fluoro-2-(piperidin-4-yl)imidazo[1,2-a]pyridin-6-yl)-2,8-dimethyl-[1,2,4]triazolo[1,5-a]pyridine] showed an IC50 of 0.1 to 1 µM.
For `Cc1cn2nc(-c3cc(F)c4nc(NC(=O)C5CN(C6CC6)C5)cn4c3)cc(C)c2n1` [Compound 265, 1-cyclopropyl-N-(6-(2,8-dimethylimidazo[1,2-b]pyridazin-6-yl)-8-fluoroimidazo[1,2-a]pyridin-2-yl)azetidine-3-carboxamide] the value was below 0.1 µM.
`Cc1cn2nc(-c3cc(F)c4nn(CC5CCNC5)nc4c3)cc(C)c2n1` (stereo not shown) [Compound 386, 6-(2,8-dimethylimidazo[1,2-b]pyridazin-6-yl)-4-fluoro-2-(pyrrolidin-3-ylmethyl)-2H-benzo[d][1,2,3]triazole] had a 50% inhibitory concentration (IC50) below 0.1 µM.
For `Cc1cn2nc(-c3cc(F)c4nc(N5CCC6(CCN(C)CC6)C5)oc4c3)cc2c(C)n1` [Compound 499, 6-(4,6-dimethylpyrazolo[1,5-a]pyrazin-2-yl)-4-fluoro-2-(8-methyl-2,8-diazaspiro[4.5]decan-2-yl)benzo[d]oxazole] the value was 0.1 to 1 µM; for `Cc1cn2nc(-c3ccc4nc([C@H]5[C@@H]6CN(C)C[C@@H]65)cn4c3)cc(C)c2n1` [Compound 554, 2,8-dimethyl-6-(2-((1R,5S,6r)-3-methyl-3-azabicyclo[3.1.0]hexan-6-yl)imidazo[1,2-a]pyridin-6-yl)imidazo[1,2-b]pyridazine], 0.1 to 1 µM.
The compound `Cc1cn2nc(-c3cc(F)c4nc(NC(=O)C5CC56CCNC6)cn4c3)cc(C)c2n1` (racemic) [Compound 253, N-(6-(2,8-dimethylimidazo[1,2-b]pyridazin-6-yl)-8-fluoroimidazo[1,2-a]pyridin-2-yl)-5-azaspiro[2.4]heptane-1-carboxamide] registered an IC50 of 0.1 to 1 µM.
Compound `Cc1cn2nc(-c3cc(F)c4nc(NC(=O)C5CCN(C)CC5)cn4c3)cc(C)c2n1` [Compound 269, N-(6-(2,8-dimethylimidazo[1,2-b]pyridazin-6-yl)-8-fluoroimidazo[1,2-a]pyridin-2-yl)-1-methylpiperidine-4-carboxamide] gave an IC50 below 0.1 µM.
As for `Cc1cn2nc(-c3cc(F)c4nc(C5CCN(C6COC6(C)C)CC5)cn4c3)cc(C)c2n1` (stereo not shown) [Compound 210, 6-(2-(1-(2,2-dimethyloxetan-3-yl)piperidin-4-yl)-8-fluoroimidazo[1,2-a]pyridin-6-yl)-2,8-dimethylimidazo[1,2-b]pyridazine], the IC50 was in the range of 0.1 to 1 µM.
Turning to `Cc1nc2ccc(-c3cc(F)c4nc(C5CCNCC5)cn4c3)nn2n1` [Compound 577, 6-(8-fluoro-2-(piperidin-4-yl)imidazo[1,2-a]pyridin-6-yl)-2-methyl-[1,2,4]triazolo[1,5-b]pyridazine], the IC50 was below 0.1 µM.
As to `COc1cc(-c2cc(C#N)c3nc(C)cn3c2)cc2cn(C3CCNCC3)nc12` [Compound 546, 6-(7-methoxy-2-(piperidin-4-yl)-2H-indazol-5-yl)-2-methylimidazo[1,2-a]pyridine-8-carbonitrile], the IC50 was in the range of 1 to 9 µM.
`Cc1nc2c(F)cc(-c3cc(F)c4nc(C5CCNCC5)cn4c3)cc2s1` [Compound 90, 4-fluoro-6-(8-fluoro-2-(piperidin-4-yl)imidazo[1,2-a]pyridin-6-yl)-2-methylbenzo[d]thiazole] registered an IC50 of 1 to 9 µM.
In turn, `Cc1cn2nc(-c3cc(F)c4nc(NC(=O)C5CN(C(C)C)C5)nn4c3)cc(C)c2n1` [Compound 324, N-[6-(2,8-dimethylimidazo[1,2-b]pyridazin-6-yl)-8-fluoro-[1,2,4]triazolo[1,5-a]pyridin-2-yl]-1-isopropyl-azetidine-3-carboxamide] gave a concentration for half-maximal inhibition (IC50) of 1 to 9 µM.
In turn, `Cc1cn2nc(-c3cc(F)c4nc(NC(=O)C5CC56CNC6)nn4c3)cc(C)c2n1` (stereo not shown) [Compound 318] showed an IC50 of 1 to 9 µM.
Turning to `Cc1cn2nc(-c3cc(F)c4nc(N5CCC6(CCN(C)CC6)C5)oc4c3)cc(C(F)F)c2n1` [Compound 507, 6-(8-(difluoromethyl)-2-methylimidazo[1,2-b]pyridazin-6-yl)-4-fluoro-2-(8-methyl-2,8-diazaspiro[4.5]decan-2-yl)benzo[d]oxazole], the IC50 was below 0.1 µM.
As for `Cc1cn2nc(-c3cc(F)c4nc(N(C)C5CCN(C(C)C)CC5)oc4c3)cc(C)c2n1` [Compound 469, 6-(2,8-dimethylimidazo[1,2-b]pyridazin-6-yl)-4-fluoro-N-(1-isopropylpiperidin-4-yl)-N-methylbenzo[d]oxazol-2-amine], the IC50 fell in the range of 0.1 to 1 µM.
Compound `Cc1cn2nc(-c3cc(F)c4nc(CC5CNC5)nn4c3)cc(C)c2n1` [Compound 440, 2-(azetidin-3-ylmethyl)-6-(2,8-dimethylimidazo[1,2-b]pyridazin-6-yl)-8-fluoro-[1,2,4]triazolo[1,5-a]pyridine] returned an IC50 of 0.1 to 1 µM.
Take `Fc1cc(F)c2nc(-c3cc(F)c4nc(C5CCNCC5)cn4c3)oc2c1` [Compound 124, 4,6-difluoro-2-(8-fluoro-2-(piperidin-4-yl)imidazo[1,2-a]pyridin-6-yl)benzo[d]oxazole]: the half-maximal inhibitory concentration (IC50) was 1 to 9 µM.
Turning to `Cc1cn2nc(-c3cc(F)c4nc(NC(=O)CC5CNC5)cn4c3)cc(C)c2n1` [Compound 281, 2-(azetidin-3-yl)-N-(6-(2,8-dimethylimidazo[1,2-b]pyridazin-6-yl)-8-fluoroimidazo[1,2-a]pyridin-2-yl)acetamide], the IC50 is below 0.1 µM.
On to `O=c1[nH]ncc2ccc(-c3cc(F)c4nc(C5CCNCC5)cn4c3)cc12` [Compound 58, 7-(8-fluoro-2-(piperidin-4-yl)imidazo[1,2-a]pyridin-6-yl)phthalazin-1(2H)-one], for which the IC50 was in the range of 1 to 9 µM.
Next, `Cc1cn2nc(-c3cc(F)c4nc(N5CCC6(CCN(C)CC6)CC5)oc4c3)cc(C)c2n1` [Compound 515, 6-(2,8-dimethylimidazo[1,2-b]pyridazin-6-yl)-4-fluoro-2-(9-methyl-3,9-diazaspiro[5.5]undecan-3-yl)benzo[d]oxazole]: 0.1 to 1 µM; `Cc1cn2nc(-c3cc(F)c4nc(NC(=O)CC5CCCCN5C)nn4c3)cc(C)c2n1` (racemic) [Compound 328, N-(6-(2,8-dimethylimidazo[1,2-b]pyridazin-6-yl)-8-fluoro-[1,2,4]triazolo[1,5-a]pyridin-2-yl)-2-(1-methylpiperidin-2-yl)acetamide]: 0.1 to 1 µM; `Cc1cn2nc(-c3cc(F)c4nc(C5CC=CC5)cn4c3)cc(C)c2n1` [Compound 196, 6-(2-cyclopent-3-en-1-yl-8-fluoro-imidazo[1,2-a]pyridin-6-yl)-2,8-dimethyl-imidazo[1,2-b]pyridazine]: 0.1 to 1 µM.
The compound `Cc1nc2c(F)cc(-c3cc(F)c4nc(C5CCNCC5)cn4c3)cn2n1` [Compound 88, 8-fluoro-6-(8-fluoro-2-(piperidin-4-yl)imidazo[1,2-a]pyridin-6-yl)-2-methyl-[1,2,4]triazolo[1,5-a]pyridine] came in with a half-inhibitory concentration (IC50) of 0.1 to 1 µM.
The compound `Cc1cn2cc(-c3cc(F)c4nc(C5CCNCC5)cn4c3)cc(C)c2n1` [Compound 95, 8-fluoro-2′,8′-dimethyl-2-(piperidin-4-yl)-6,6′-biimidazo[1,2-a]pyridine] displayed an IC50 of 0.1 to 1 µM.
Next, `Cc1cn2nc(-c3cc(F)c4nn(C5CCN(C)CC5)cc4c3)cc(C)c2n1` [Compound 364, 6-(7-fluoro-2-(1-methylpiperidin-4-yl)-2H-indazol-5-yl)-2,8-dimethylimidazo[1,2-b]pyridazine]: 0.1 to 1 µM; `Cc1cn2nc(-c3cc(F)c4nc(NC(=O)C5(C)CN(C6CC6)C5)cn4c3)cc(C)c2n1` [Compound 282, 1-cyclopropyl-N-(6-(2,8-dimethylimidazo[1,2-b]pyridazin-6-yl)-8-fluoroimidazo[1,2-a]pyridin-2-yl)-3-methylazetidine-3-carboxamide]: below 0.1 µM; `Cc1cn2nc(-c3cc(F)c4nc(C5CCNC(C)(C)C5)cn4c3)ccc2n1` (stereo not shown) [Compound 62, 6-(2-(2,2-dimethylpiperidin-4-yl)-8-fluoroimidazo[1,2-a]pyridin-6-yl)-2-methylimidazo[1,2-b]pyridazine]: below 0.1 µM.
For `Cc1cn2nc(-c3cc(F)c4nc(C5CCOCC5)cn4c3)cc(C)c2n1` [Compound 169, 6-(8-fluoro-2-(tetrahydro-2H-pyran-4-yl)imidazo[1,2-a]pyridin-6-yl)-2,8-dimethylimidazo[1,2-b]pyridazine] the value was 0.1 to 1 µM; for `Cc1cn2nc(-c3cc(F)c4nn(C5CC6(CCNC6)C5)nc4c3)cc(C)c2n1` (stereo not shown) [Compound 398, 6-(2,8-dimethylimidazo[1,2-b]pyridazin-6-yl)-4-fluoro-2-(6-azaspiro[3.4]octan-2-yl)-2H-benzo[d][1,2,3]triazole], below 0.1 µM.
For `Cc1nc2c(C)cc(-c3cc(F)c4nn(C5CCNCC5)nc4c3)nn2n1` [Compound 390, 6-(7-fluoro-2-(piperidin-4-yl)-2H-benzo[d][1,2,3]triazol-5-yl)-2,8-dimethyl-[1,2,4]triazolo[1,5-b]pyridazine] the value was 0.1 to 1 µM.
